US9695155B2, “Herbicidal substituted pyrimidinyloxy benzene compounds” (E. I. DU PONT DE NEMOURS AND COMPANY, priority 2013, dated 2017)

Experiments:
barnyardgrass [1] = experiment: Test C postemergence; assay type: in vivo, Echinochloa crus-galli
Method in brief: (§1)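 Rated visually on 0–100 (100 = complete control) after 13–15 days under glass. Treatments went onto freshly seeded loam/sand soil or onto emerged plants at the 1- to 4-leaf stage, using a surfactant-containing solvent formulation.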

giant foxtail = experiment: Test A preemergence; assay type: in vivo, Setaria faberii
Method in brief: (§2)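 Visual injury scored 0–100 (100 = complete control) against untreated controls about 10 days after treatment in a greenhouse. Test chemicals, formulated with surfactant in non-phytotoxic solvent, were sprayed on soil preemergence or on 2-10 cm, one- to two-leaf plants postemergence.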

galium = experiment: Test C postemergence; assay type: in vivo, Galium aparine
Method in brief: as §1

blackgrass = experiment: Test C postemergence; assay type: in vivo, Alopecurus myosuroides
Method in brief: as §1

oilseed rape = experiment: Test C postemergence; assay type: in vivo, Brassica napus; conditions: for Oilseed Rape plant response rating: 31 g ai/ha
Method in brief: as §1

pigweed [2] = experiment: Test A preemergence; assay type: in vivo, Amaranthus retroflexus
Method in brief: as §2

johnsongrass = experiment: Test C postemergence; assay type: in vivo, Sorghum halepense; conditions: for Johnsongrass plant response rating: 31 g ai/ha
Method in brief: as §1

lambsquarters = experiment: Test C postemergence; assay type: in vivo, Chenopodium album; conditions: for Lambsquarters plant response rating: 31 g ai/ha
Method in brief: as §1

pigweed [3] = experiment: Test A postemergence; assay type: in vivo, Amaranthus retroflexus; conditions: 0 to 100 scale, 0 no effect, 100 complete control
Method in brief: as §2

large (Lg) crabgrass = experiment: Test C postemergence; assay type: in vivo, Digitaria sanguinalis
Method in brief: as §1

waterhemp = experiment: Test C postemergence; assay type: in vivo, Amaranthus rudis; conditions: for Waterhemp plant response rating: 31 g ai/ha
Method in brief: as §1

barnyardgrass [4] = experiment: Test A preemergence; assay type: in vivo, Echinochloa crus-galli
Method in brief: as §2

wild oat = experiment: Test C postemergence; assay type: in vivo, Avena fatua; conditions: for Oat, Wild plant response rating: 31 g ai/ha
Method in brief: as §1

[5] = postemergence, visual rating, scale 0 to 100 (0 no effect, 100 complete control), 13 to 15 days
[6] = 16 g ai/ha, postemergence, 0 is no effect, 100 is complete control
[7] = 31 g ai/ha, postemergence, visual rating, scale 0 to 100 (0 no effect, 100 complete control), 13 to 15 days
[8] = 125 g ai/ha, postemergence, visual rating, scale 0 to 100 (0 no effect, 100 complete control)
[9] = 31 g ai/ha, 0 to 100 scale where 0 is no effect and 100 is complete control, visual, approximately 10 days
[10] = Postemergence, 62 g ai/ha, scale 0 to 100 (0 no effect, 100 complete control), 13 to 15 days

Clc1cnc(Oc2ccccc2-n2cc(C3CC3)nn2)nc1 [Compound 160, 5-chloro-2-[2-(4-cyclopropyl-1H-1,2,3-triazol-1-yl)phenoxy]pyrimidine]
pest or weed control at 16 g/ha (barnyardgrass [1]; Echinochloa crus-galli, post-emergence, 16 g ai/ha, postemergence, 0 is no effect, 100 is complete control, read-out: Plant response rating (0 to 100), Barnyardgrass): 5% | pest or weed control at 31 g/ha (barnyardgrass [1]; Echinochloa crus-galli, post-emergence, 31 g ai/ha, postemergence, visual rating, scale 0 to 100 (0 no effect, 100 complete control), 13 to 15 days, read-out: Barnyardgrass plant response rating): 5% | pest or weed control at 125 g/ha (barnyardgrass [1]; Echinochloa crus-galli, post-emergence, 125 g ai/ha, postemergence, visual rating, scale 0 to 100 (0 no effect, 100 complete control), read-out: Plant response rating, Barnyardgrass): 5% | pest or weed control at 62 g/ha (barnyardgrass [1]; Echinochloa crus-galli, post-emergence, Postemergence, 62 g ai/ha, scale 0 to 100 (0 no effect, 100 complete control), read-out: Plant response rating, Barnyardgrass): 5% | pest or weed control at 1000 g/ha (giant foxtail; Setaria faberi, pre-emergence, 240 h, 1000 g ai/ha, 0 to 100 scale, 0 no effect, 100 complete control, approx. 10 days, read-out: Foxtail, Giant plant response rating): 100% | pest or weed control at 16 g/ha (galium; Galium, post-emergence, 16 g ai/ha, postemergence, 0 is no effect, 100 is complete control, read-out: Plant response rating (0 to 100), Galium): 80% | pest or weed control at 31 g/ha (galium; Galium, post-emergence, 31 g ai/ha, postemergence, visual rating, scale 0 to 100 (0 no effect, 100 complete control), 13 to 15 days, read-out: Galium plant response rating): 80% | pest or weed control at 125 g/ha (galium; Galium, post-emergence, 125 g ai/ha, postemergence, visual rating, scale 0 to 100 (0 no effect, 100 complete control), read-out: Plant response rating, Galium): 85% | pest or weed control at 62 g/ha (galium; Galium, post-emergence, Postemergence, 62 g ai/ha, scale 0 to 100 (0 no effect, 100 complete control), read-out: Plant response rating, Galium): 95% | pest or weed control at 16 g/ha (blackgrass; Alopecurus myosuroides, post-emergence, 16 g ai/ha, postemergence, 0 is no effect, 100 is complete control, read-out: Plant response rating (0 to 100), Blackgrass): 0% | pest or weed control at 31 g/ha (blackgrass; Alopecurus myosuroides, post-emergence, 31 g ai/ha, postemergence, visual rating, scale 0 to 100 (0 no effect, 100 complete control), 13 to 15 days, read-out: Blackgrass plant response rating): 0% | pest or weed control at 125 g/ha (blackgrass; Alopecurus myosuroides, post-emergence, 125 g ai/ha, postemergence, visual rating, scale 0 to 100 (0 no effect, 100 complete control), read-out: Plant response rating, Blackgrass): 15% | pest or weed control at 62 g/ha (blackgrass; Alopecurus myosuroides, post-emergence, Postemergence, 62 g ai/ha, scale 0 to 100 (0 no effect, 100 complete control), read-out: Plant response rating, Blackgrass): 5% | Oilseed Rape plant response rating (oilseed rape; [5]): 55 | plant injury at 16 g/ha (oilseed rape; Brassica napus, post-emergence, 16 g ai/ha, postemergence, 0 is no effect, 100 is complete control, read-out: Plant response rating (0 to 100), Oilseed Rape): 10% | plant injury at 125 g/ha (oilseed rape; Brassica napus, post-emergence, 125 g ai/ha, postemergence, visual rating, scale 0 to 100 (0 no effect, 100 complete control), read-out: Plant response rating, Oilseed Rape): 60% | plant injury at 62 g/ha (oilseed rape; Brassica napus, post-emergence, Postemergence, 62 g ai/ha, scale 0 to 100 (0 no effect, 100 complete control), read-out: Plant response rating, Oilseed Rape): 60% | pest or weed control at 1000 g/ha (pigweed [2]; Amaranthus retroflexus, pre-emergence, 240 h, 1000 g ai/ha, 0 to 100 scale, 0 no effect, 100 complete control, approx. 10 days, read-out: Pigweed plant response rating): 100% | Johnsongrass plant response rating (johnsongrass; [5]): 0 | pest or weed control at 16 g/ha (johnsongrass; Sorghum halepense, post-emergence, 16 g ai/ha, postemergence, 0 is no effect, 100 is complete control, read-out: Plant response rating (0 to 100), Johnsongrass): 0% | pest or weed control at 125 g/ha (johnsongrass; Sorghum halepense, post-emergence, 125 g ai/ha, postemergence, visual rating, scale 0 to 100 (0 no effect, 100 complete control), read-out: Plant response rating, Johnsongrass): 5% | pest or weed control at 62 g/ha (johnsongrass; Sorghum halepense, post-emergence, Postemergence, 62 g ai/ha, scale 0 to 100 (0 no effect, 100 complete control), read-out: Plant response rating, Johnsongrass): 0% | Lambsquarters plant response rating (lambsquarters; [5]): 65 | pest or weed control at 16 g/ha (lambsquarters; Chenopodium album, post-emergence, 16 g ai/ha, postemergence, 0 is no effect, 100 is complete control, read-out: Plant response rating (0 to 100), Lambsquarters): 65% | pest or weed control at 125 g/ha (lambsquarters; Chenopodium album, post-emergence, 125 g ai/ha, postemergence, visual rating, scale 0 to 100 (0 no effect, 100 complete control), read-out: Plant response rating, Lambsquarters): 95% | pest or weed control at 62 g/ha (lambsquarters; Chenopodium album, post-emergence, Postemergence, 62 g ai/ha, scale 0 to 100 (0 no effect, 100 complete control), read-out: Plant response rating, Lambsquarters): 70% | pest or weed control at 1000 g/ha (pigweed [3]; Amaranthus retroflexus, post-emergence, 240 h, 1000 g ai/ha, read-out: Plant response rating Pigweed): 100% | pest or weed control at 16 g/ha (large (Lg) crabgrass; Digitaria sanguinalis, post-emergence, 16 g ai/ha, postemergence, 0 is no effect, 100 is complete control, read-out: Plant response rating (0 to 100), Crabgrass, Large): 5% | pest or weed control at 31 g/ha (large (Lg) crabgrass; Digitaria sanguinalis, post-emergence, 31 g ai/ha, postemergence, visual rating, scale 0 to 100 (0 no effect, 100 complete control), 13 to 15 days, read-out: Crabgrass, Large plant response rating): 5% | pest or weed control at 125 g/ha (large (Lg) crabgrass; Digitaria sanguinalis, post-emergence, 125 g ai/ha, postemergence, visual rating, scale 0 to 100 (0 no effect, 100 complete control), read-out: Plant response rating, Crabgrass, Large): 10% | pest or weed control at 62 g/ha (large (Lg) crabgrass; Digitaria sanguinalis, post-emergence, Postemergence, 62 g ai/ha, scale 0 to 100 (0 no effect, 100 complete control), read-out: Plant response rating, Crabgrass, Large): 5% | Waterhemp plant response rating (waterhemp; [5]): 35 | pest or weed control at 16 g/ha (waterhemp; Amaranthus tuberculatus, post-emergence, 16 g ai/ha, postemergence, 0 is no effect, 100 is complete control, read-out: Plant response rating (0 to 100), Waterhemp): 70% | pest or weed control at 125 g/ha (waterhemp; Amaranthus tuberculatus, post-emergence, 125 g ai/ha, postemergence, visual rating, scale 0 to 100 (0 no effect, 100 complete control), read-out: Plant response rating, Waterhemp): 85% | pest or weed control at 62 g/ha (waterhemp; Amaranthus tuberculatus, post-emergence, Postemergence, 62 g ai/ha, scale 0 to 100 (0 no effect, 100 complete control), read-out: Plant response rating, Waterhemp): 70% | pest or weed control at 1000 g/ha (barnyardgrass [4]; Echinochloa crus-galli, pre-emergence, 240 h, 1000 g ai/ha, 0 to 100 scale, 0 no effect, 100 complete control, approx. 10 days, read-out: Barnyardgrass plant response rating): 100% | Oat, Wild plant response rating (wild oat; [5]): 0 | pest or weed control at 16 g/ha (wild oat; Avena fatua, post-emergence, 16 g ai/ha, postemergence, 0 is no effect, 100 is complete control, read-out: Plant response rating (0 to 100), Oat, Wild): 0% | pest or weed control at 125 g/ha (wild oat; Avena fatua, post-emergence, 125 g ai/ha, postemergence, visual rating, scale 0 to 100 (0 no effect, 100 complete control), read-out: Plant response rating, Oat, Wild): 0% | pest or weed control at 62 g/ha (wild oat; Avena fatua, post-emergence, Postemergence, 62 g ai/ha, scale 0 to 100 (0 no effect, 100 complete control), read-out: Plant response rating, Oat, Wild): 0%

FCc1cccc(Oc2ncc(Cl)cn2)c1-n1cc(I)cn1 [Compound 245]
Plant response rating (0 to 100), Barnyardgrass (barnyardgrass [1]; [6]): 5 | Barnyardgrass plant response rating (barnyardgrass [1]; [7]): 5 | Plant response rating, Barnyardgrass (barnyardgrass [1]; [8]): 5 | Plant response rating, Barnyardgrass (barnyardgrass [1]; Postemergence, 62 g ai/ha, scale 0 to 100 (0 no effect, 100 complete control)): 5 | Plant response rating, Foxtail, Giant (giant foxtail; [9]): 60 | Foxtail, Giant plant response rating (0 to 100 scale) (giant foxtail; 125 g ai/ha): 100 | Plant response rating (0 to 100), Galium (galium; [6]): 60 | Galium plant response rating (galium; [7]): 60 | Plant response rating, Galium (galium; [8]): 85 | Plant response rating, Galium (galium; [10]): 80 | Plant response rating (0 to 100), Blackgrass (blackgrass; [6]): 0 | Blackgrass plant response rating (blackgrass; [7]): 0 | Plant response rating, Blackgrass (blackgrass; [8]): 5 | Plant response rating, Blackgrass (blackgrass; [10]): 5 | Plant response rating (0 to 100), Oilseed Rape (oilseed rape; [6]): 40 | Oilseed Rape plant response rating (oilseed rape; [5]): 50 | Plant response rating, Oilseed Rape (oilseed rape; [8]): 80 | Plant response rating, Oilseed Rape (oilseed rape; [10]): 50 | Plant response rating, Pigweed (pigweed [2]; [9]): 90 | Pigweed plant response rating (0 to 100 scale) (pigweed [2]; 125 g ai/ha): 90 | Plant response rating (0 to 100), Johnsongrass (johnsongrass; [6]): 5 | Johnsongrass plant response rating (johnsongrass; [5]): 5 | Plant response rating, Johnsongrass (johnsongrass; [8]): 10 | Plant response rating, Johnsongrass (johnsongrass; [10]): 10 | Plant response rating (0 to 100), Lambsquarters (lambsquarters; [6]): 50 | Lambsquarters plant response rating (lambsquarters; [5]): 70 | Plant response rating, Lambsquarters (lambsquarters; [8]): 98 | Plant response rating, Lambsquarters (lambsquarters; [10]): 80 | Plant response rating, Pigweed (pigweed [3]; 31 g ai/ha): 0 | Plant response rating, Pigweed (pigweed [3]; 125 g ai/ha): 90 | Plant response rating (0 to 100), Crabgrass, Large (large (Lg) crabgrass; [6]): 5 | Crabgrass, Large plant response rating (large (Lg) crabgrass; [7]): 5 | Plant response rating, Crabgrass, Large (large (Lg) crabgrass; [8]): 15 | Plant response rating, Crabgrass, Large (large (Lg) crabgrass; [10]): 10 | Plant response rating (0 to 100), Waterhemp (waterhemp; [6]): 60 | Waterhemp plant response rating (waterhemp; [5]): 65 | Plant response rating, Waterhemp (waterhemp; [8]): 75 | Plant response rating, Waterhemp (waterhemp; [10]): 85 | Plant response rating, Barnyardgrass (barnyardgrass [4]; [9]): 0 | Barnyardgrass plant response rating (0 to 100 scale, 0 is no effect, 100 is complete control) (barnyardgrass [4]; 125 g ai/ha): 70 | Plant response rating (0 to 100), Oat, Wild (wild oat; [6]): 0 | Oat, Wild plant response rating (wild oat; [5]): 0 | Plant response rating, Oat, Wild (wild oat; [8]): 5 | Plant response rating, Oat, Wild (wild oat; [10]): 5
